{"source": "patent US8906602B2", "about": "“Methods for identifying candidate compounds for treating, reducing, or preventing pathogenic infections” (The General Hospital Corporation, priority 2004, dated 2014)", "key": {"phzABC-lacZ reporter": {"tested_on": "phzABC-lacZ reporter", "assay": "phzABC-lacZ reporter activity after exogenous HHQ, wild-type PA14 cells", "assay_type": "cell-based, Pseudomonas aeruginosa PA14", "conditions": "wild-type PA14, 10 mg/L HHQ added to culture medium", "text": "To determine whether HHQ is itself involved in signal gene regulation, independently from PQS activity, or whether it functions solely as a PQS precursor, we asked whether exogenous HHQ can stimulate the activity of a phzABC-lacZ reporter carried by wild-type PA14 cells, and by lasR^− mutant cells.\nP. aeruginosa strains include: wild type PA14 (Rahme et al., Science 268, 1899-1902, 1995); an mvfR mutant (Cao et al., Proc. Natl. Acad. Sci. USA 98, 14613 -8, 2001); 8C12, a TnphoA-insertion mutant of pqsB (Mahajan-Miklos et al., Cell 96, 47-56, 1999); and a lasR::Gm mutant, which was generated by allelic exchange using pSB219.9A as described (Beatson et al., J Bacteriol 184, 3598-604, 2002). A pqsE deletion mutant was generated via pEX18Ap allelic replacement, using sucrose selection, resulting in a 570 bp non-polar deletion covering 65% of the sequence (Hoang et al., Gene 212, 77-86, 1998). The pqsA (U479) TnphoA mutant was obtained from the PA14 Transposon Insertion Mutant Database. For complementation analysis, mvfR was cloned into pDN18 (Nunn et al., J. Bacteriol. 172, 1990). […] Specific β-galactosidase activity was determined as reported (Miller, Cold Spring Harbor Laboratory, Cold Spring Harbor, N.Y., pp. 352-355 1972). […]"}, "pyocyanin production": {"tested_on": "pyocyanin production", "assay": "Pyocyanin production in pqs or mvfR mutant cultures", "assay_type": "cell-based, Pseudomonas aeruginosa pqs or mvfR mutants", "conditions": "addition to cultures of any pqs or mvfR mutants", "description": "Whereas pqsA or pqsB inactivation abolish HAQ production, a pqsE mutant produces essentially normal HAQ levels (FIG. 12), and HAQ-related antibiotic activity (FIG. 6). […] Supporting this notion, mvfR overexpression gave excessive pyocyanin accumulation (FIG. 12). […] Such compounds would not be detected by our assay, which was aimed at extracellular compounds. Loss of these compounds might underlie the reduced pathogenicity of a pqsE mutant.\nBacteria were grown in Luria-Bertani broth or on 1.5% Bacto-agar (Difco) LB plates. Freshly plated cells served as inoculum. For pyocyanin production, bacteria were grown in King's A broth (King et al., J. Lab. Clin. Med. 44, 301, 1954) and the pyocyanin quantified as OD520 after supernatant extraction (Essar et al., J. Bacteriol. 172, 884-900, 1990). Tetracycline (75 mg/L), carbenicillin (300 mg/L), kanamycin (200 mg/L), and gentamicin (100 mg/L) were included as required."}, "pqsA-lacZ reporter": {"tested_on": "pqsA-lacZ reporter", "assay": "pqsA-lacZ reporter induction in pqsA mutant cultures", "assay_type": "cell-based, Pseudomonas aeruginosa pqsA mutant", "conditions": "pqsA mutant background, compounds added at onset of culture at 10 mg/L", "text": "Activity is reported as Miller units (MU), corrected for the OD of the cultures at 600 nm.\nP. aeruginosa strains include: wild type PA14 (Rahme et al., Science 268, 1899-1902, 1995); an mvfR mutant (Cao et al., Proc. Natl. Acad. Sci. USA 98, 14613 -8, 2001); 8C12, a TnphoA-insertion mutant of pqsB (Mahajan-Miklos et al., Cell 96, 47-56, 1999); and a lasR::Gm mutant, which was generated by allelic exchange using pSB219.9A as described (Beatson et al., J Bacteriol 184, 3598-604, 2002). A pqsE deletion mutant was generated via pEX18Ap allelic replacement, using sucrose selection, resulting in a 570 bp non-polar deletion covering 65% of the sequence (Hoang et al., Gene 212, 77-86, 1998). The pqsA (U479) TnphoA mutant was obtained from the PA14 Transposon Insertion Mutant Database. For complementation analysis, mvfR was cloned into pDN18 (Nunn et al., J. Bacteriol. 172, 1990). The reporter fusions phzABC-lacZ and hcnA′-lacZ have been described (Whiteley et al., J. Bacteriol. 182, 4356-60, 2000; Pessi et al., J. Bacteriol. 182, 6940-9, 2000). Plasmids were transformed into PA14 by electroporation (Smith et al., Nuc. Acid. Res. 17, 10509, 1989). Specific β-galactosidase activity was determined as reported (Miller, Cold Spring Harbor Laboratory, Cold Spring Harbor, N.Y., pp. 352-355 1972)."}, "[1]": {"conditions": "Pesci et al. 1999; cited from earlier work"}, "Bacillus subtilis": {"tested_on": "Bacillus subtilis", "assay": "Antimicrobial activity assay on well-plates (growth inhibition zones)", "assay_type": "cell-based", "conditions": "well-plate, 60 μl of 25% methanol solution of test extract or pure HAQ, overnight 37° C.; FIG. 10", "text": "Bacillus subtilis growth on well plates was scored for inhibition by culture extracts of PA14 and the mvfR, pqsA, and pqsE mutant strains (left plate), and by purified PQS, HHQ and HQNO, versus PA14 extract (right plate).\nFluorescent pseudomonads, and perhaps just P. aeruginosa, are the only microorganisms identified to produce HAQs (Budzikiewicz, FEMS Microbiol. Rev. 104, 209-228, 1993; Lépine et al., Biochim. Biophys. Acta 1622, 36-40, 2003). Although their biological functions are unknown, many HAQs were initially isolated as antibiotics (Hays et al., J. Biol. Chem. 159, 725-750, 1945; Wells, J. Biol. Chem. 196, 331-340, 1952). We assayed the antimicrobial activity of total organic extracts from PA14 and mvfR, pqsA, and pqsE mutant strains, and purified PQS, HHQ and HQNO, against the Gram-positive species Staphylococcus aureus and Bacillus subtilis. […] Thus, MvfR regulates the production of antibiotics that can function in niche competition against other bacteria. Because the pqsE mutant and PA14 produce roughly the same levels of antimicrobial activity, these antibiotic compounds are probably HAQs, instead of other non-polar compounds whose synthesis is under PQS control.\nHAQ antimicrobial activity was evaluated on well-plates. […] Plates were incubated overnight at 37° C. and scored for growth inhibition zones around the test wells."}, "cytochrome": {"tested_on": "cytochrome", "conditions": "Lightbown et al. 1956; cited from earlier work"}, "[2]": {"tested_on": "Na^+-translocating NADH-quinone oxidoreductases", "conditions": "Häse et al. 2001; cited from earlier work"}}}
{"smiles": "CCCCCCCc1cc(O)c2ccccc2n1", "note": "[HHQ, 4-hydroxy-2-heptylquinoline]", "values": [{"measurement": "β-galactosidase activity of phzABC-lacZ reporter", "setting": "phzABC-lacZ reporter", "result": "induces significant and consistent levels of β-galactosidase activity"}, {"measurement": "induction of pyocyanin production", "setting": "pyocyanin production", "result": "failed to induce pyocyanin production"}]}
{"smiles": "CCCCCCCc1nc2ccccc2c(O)c1O", "note": "[PQS, 3,4-dihydroxy-2-heptylquinoline]", "values": [{"measurement": "pqsA-lacZ induction (LacZ activity)", "setting": "pqsA-lacZ reporter", "result": "activates pqsA transcription"}, {"measurement": "induction of pyocyanin production", "setting": "pyocyanin production", "result": "failed to induce pyocyanin production"}, {"measurement": "antibiotic activity", "setting": "[1]", "result": "no antibiotic activity"}]}
{"smiles": "Nc1ccccc1C(=O)O", "note": "[AA, anthranilic acid]", "values": [{"measurement": "pqsA-lacZ induction (LacZ activity)", "setting": "pqsA-lacZ reporter", "result": "does not"}]}
{"smiles": "CCCCCCCc1cc(O)c2ccccc2[n+]1[O-]", "note": "[HQNO, 4-hydroxy-2-heptylquinoline N-oxide]", "values": [{"measurement": "antimicrobial activity (growth inhibition)", "setting": "Bacillus subtilis", "result": "specific antibacterial activity"}, {"measurement": "cytochrome inhibition", "setting": "cytochrome", "result": "widely used cytochrome inhibitor"}, {"measurement": "inhibition of Na^+-translocating NADH-quinone oxidoreductases", "setting": "[2]", "result": "inhibits"}]}
